Measured values reported in US20220401514A1, “ANTIMICROBIAL, BACTERIOPHAGE-DERIVED POLYPEPTIDES AND THEIR USE AGAINST GRAM-NEGATIVE AND ACID-FAST BACTERIA” (CONTRAFECT CORPORATION, priority 2019, published 2022).
≈ marks a conversion by molar mass, not a printed value. Like-named read-outs stand apart in the source and are kept apart here.

Columns and labels:
[1] = test system: Acinetobacter baumannii strain 30; test: Checkerboard assay (FICI) with antibiotics, A. baumannii; type: cell-based; details: checkerboard
Procedure: (§1) Checkerboard assays. […] Checkerboards were constructed by first preparing columns of a 96-well polypropylene microtiter plate, in which each well had the same amount of antibiotic diluted 2-fold along the horizontal axis. […] Summation fractional inhibitory concentration index (FICIs) were calculated for each drug and the minimum FICI was used to determine synergy. FICIs were calculated as follows: FICI=FIC A+FIC B, where FIC A is the MIC of each antibiotic in the combination/MIC of the each antibiotic alone, and FIC B is the MIC of each Chp peptide in the combination/MIC of each Chp peptide alone. The combination is considered synergistic when the FICI is ≤0.5, strongly additive when the FICI is >0.5 to <1, additive with the FICI is 1-<2, and antagonistic when the FICI is ≥2.
The results are shown below in Tables 22-27.

[2] = test system: carbapenem-resistant bacterial strains; test: organism not typed; type: cell-based
Excerpt: (§2) Determination of Minimal Inhibitory Concentrations (MIC).

[3] = test system: P. aeruginosa strain CFS-1292; test: Checkerboard assay (FICI) with antibiotics, P. aeruginosa; type: cell-based, Pseudomonas aeruginosa; details: for Antibiotic FIC: P. aeruginosa CFS-1292; for Antibiotic MIC in checkerboard: P. aeruginosa CFS-1292, CAA + […] human serum
Procedure: Any known method to assess MIC may be used.
Checkerboards are constructed by first preparing columns of e.g., a 96-well polypropylene microtiter plate, wherein each well has the same amount of antibiotic diluted 2-fold along the horizontal axis. […] Bacteria are added to the drug combinations at concentrations of 1×10^5 […] in CAA, for example, with or without human serum or pulmonary surfactant. […] Summation fractional inhibitory concentrations (ΣFICs) are calculated for each drug and the minimum ΣFIC value (ΣFICmin) is used to determine the effect of the Chp peptide/antibiotic combination.
as §1
In the checkerboard assay, fractional inhibitory concentration index (FICI) values are calculated.

[4] = test system: Klebsiella pneumoniae strain 1139; test: Checkerboard assay (FICI) with antibiotics, K. pneumoniae; type: cell-based
Procedure: as §1

[5] = test system: Stenotrophomonas-containing biofilm on explanted hemodialysis catheters; test: Antibiofilm activity in explanted hemodialysis catheters; type: cell-based, Stenotrophomonas spp.
Procedure: The explanted hemodialysis catheters were cut into equal length segments and bisected to expose the lumen.
The samples were treated for 4 hours at 37° C. before rinsing with Lactated Ringer's solution.
Three additional infected hemodialysis catheter samples were removed from two patients (one catheter from a first patient and two catheters from a second patient). […] The samples were incubated at 37° C. for 4 hours.

[6] = test system: P. aeruginosa strain CFS-1292; test: MIC in presence and absence of Survanta pulmonary surfactant; type: cell-based, Pseudomonas aeruginosa
Pseudomonas aeruginosa = test: microbe, parasite or virus in culture; type: cell-based; details: P. aeruginosa isolates (n per peptide in table)
Escherichia coli = test: microbe, parasite or virus in culture; type: cell-based
Procedure, shortened: (§3)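 Medium: CAA with added human serum. Peptides tested for minimal inhibitory concentration against each strain.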

Enterobacter cloacae = test: microbe, parasite or virus in culture; type: cell-based
Procedure, shortened: as §3

M. avium = test: 45 hr MIC against M. avium (NTM); type: cell-based, Mycobacterium avium; details: M. avium Chester ATCC 700898
[7] = test system: carbapenem-resistant P. aeruginosa clinical isolate CFS-1292; test: MIC by modified CLSI broth microdilution against P. aeruginosa CFS-1292 (CAA, CAA + human serum); type: cell-based, Pseudomonas aeruginosa
[8] = test system: P. aeruginosa strain CFS-1292; test: MIC at pH 6, pH 7 and pH 8; type: cell-based, Pseudomonas aeruginosa
Procedure: The Chp peptides were further evaluated at varying pH levels. The MIC values were determined at pH 6, pH 7, and pH 8 for 18 different Chp peptides against P. aeruginosa strain CFS-1292. […]

[9] = test system: Mycobacterium tuberculosis strains
Procedure: MIC values for various Chp peptides were determined using the CLSI method for broth microdilution in 96-well microtiter format.
Next, MIC values for various Chp peptides were determined using the CLSI method above for broth microdilution in 96-well microtiter format for two different Mycobacterium tuberculosis strains. The MIC was determined as explained above for the NTM strains.

S. maltophilia = test: MIC against S. maltophilia isolates; type: cell-based, Stenotrophomonas maltophilia; details: S. maltophilia isolates (n per peptide in table)
Procedure, shortened: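 MIC in μg/mL for Chp peptides across several S. maltophilia isolates, n denoting the number of isolates tested.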

[10] = test system: Pseudomonas aeruginosa, Escherichia coli, Enterobacter cloacae, Klebsiella pneumoniae, and Acinetobacter baumannii; test: MIC against a range of Gram-negative organisms (statements covering several species); type: cell-based; details: Tables 40-44 isolates
Procedure: as §2
(§4) Additional MIC testing was performed for several peptides against the ESKAPE pathogens Escherichia coli, Enterobacter cloacae, Klebsiella pneumoniae, and Acinetobacter baumannii, in CAA supplemented with human serum (Table D).

[11] = test system: P. aeruginosa strain CFS-1292; test: MIC in presence of divalent cations (calcium chloride, magnesium sulfate); type: cell-based, Pseudomonas aeruginosa
Procedure: Next, Chp peptides were evaluated in the presence of different divalent cations. […]; (2) in the presence of 2 mM calcium chloride alone; (3) in the presence of 1 mM magnesium sulfate alone; and (4) in the presence of both 2 mM calcium chloride and 1 mM magnesium sulfate. […]

[12] = test system: M. kansasii Hauduroy ATCC 12478; test: 45 hr MIC against M. kansasii (NTM), Mueller Hinton broth; type: cell-based, Mycobacterium kansasii
Klebsiella pneumoniae = type: cell-based
Procedure: as §2, §4

M. intracellulare = test: 45 hr MIC against M. intracellulare (NTM); type: cell-based, Mycobacterium intracellulare; details: M. intracellulare (Cuttino and McCabe) Runyon ATCC 13950
M. smegmatis = test: 45 hr MIC against M. smegmatis (NTM), Mueller Hinton broth; type: cell-based, Mycobacterium smegmatis
Acinetobacter baumannii = test: microbe, parasite or virus in culture; type: cell-based
[13] = test system: P. aeruginosa strain CFS-1292; test: MIC in presence of mouse, rat, rabbit and human serum ([…] each); type: cell-based, Pseudomonas aeruginosa; details: P. aeruginosa CFS-1292
Procedure: The activity of several Chp peptides against P. aeruginosa strain CFS-1292 in animal serum was evaluated. […] Rat, mouse, and rabbit serum were all obtained from pooled gender samples.

[14] = test system: P. aeruginosa strain CFS-1292; test: MIC in presence and absence of NaCl (140 mM); type: cell-based, Pseudomonas aeruginosa
Procedure: Certain Chp peptides were evaluated over a range of physiological NaCl levels and pH values, and were further evaluated for activity in the presence of various divalent cations.

M. scrofulaceum = test: 45 hr MIC against M. scrofulaceum (NTM); type: cell-based, Mycobacterium scrofulaceum; details: M. scrofulaceum Prissick and Masson ATCC 19981
[15] = Stability assessment in 100% CAA; type: in vitro ADME; design: unit not given beside the values
Procedure: Stability was assessed after incubation in 100% human serum at 37° C. after 10 minutes, 1 hour, and 2 hours.
Stability assessment was further conducted in 100% CAA and rabbit serum using the same methodology discussed above.

M. fortuitum = test: 45 hr MIC against M. fortuitum (NTM); type: cell-based, Mycobacterium fortuitum; details: M. fortuitum subsp. Fortuitum da Costa Cruz. ATCC 6841
[16] = carbapenem-resistant isolate PA23
[17] = checkerboard, in combination with Chp4-M1
[18] = checkerboard, in combination with Chp6-M1
[19] = checkerboard, in combination with Chp10-M1
[20] = E. coli isolates (n per peptide in table)
[21] = E. cloacae isolates (n per peptide in table)
[22] = K. pneumoniae isolates (n per peptide in table)
[23] = A. baumannii isolates (n per peptide in table)

## C[C@@H](O)[C@H]1C(=O)N2C(C(=O)O)=C(S[C@@H]3CN[C@H](C(=O)N(C)C)C3)[C@H](C)[C@H]12 [meropenem, reference compound]
[1]; in combination with Chp2
  Antibiotic FIC: 0.25
[1]; in combination with Chp2-M1
  Antibiotic FIC: 0.25
[1]; in combination with Chp4-M1
  Antibiotic FIC: 0.25
[1]; in combination with Chp6-M1
  Antibiotic FIC: 0.25
[1]; in combination with Chp10-M1
  Antibiotic FIC: 0.125
[1]; in combination with Unp2-M1
  Antibiotic FIC: 0.25
[2]; [16]
  MIC: 8 µg/mL (≈ 20.9 µM)
[3]; combined with Chp2-M1
  Antibiotic FIC: 0.25
  Antibiotic MIC in checkerboard: 4 µg/mL
[3]; combined with Chp2
  Antibiotic FIC: 0.25
  Antibiotic MIC in checkerboard: 4 µg/mL
[3]; combined with Chp4-M1
  Antibiotic FIC: 0.25
  Antibiotic MIC in checkerboard: 4 µg/mL
[3]; combined with Chp6-M1
  Antibiotic FIC: 0.25
  Antibiotic MIC in checkerboard: 4 µg/mL
[3]; combined with Chp10-M1
  Antibiotic FIC: 0.25
  Antibiotic MIC in checkerboard: 2 µg/mL
[3]; combined with Unp2-M1
  Antibiotic FIC: 0.25
  Antibiotic MIC in checkerboard: 4 µg/mL
[4]; [17]
  Antibiotic FIC: 0.125
  Antibiotic MIC: 0.007812 µg/mL
[4]; [18]
  Antibiotic FIC: 0.25
  Antibiotic MIC: 0.01562 µg/mL
[4]; [19]
  Antibiotic FIC: 0.125
  Antibiotic MIC: 0.01562 µg/mL
[4]; checkerboard, in combination with Unp2-M1
  Antibiotic FIC: 0.03125
[4]; combined with Chp2
  Antibiotic FIC: 0.25
  Antibiotic MIC in checkerboard: 0.01562 µg/mL
[4]; combined with Chp2-M1
  Antibiotic FIC: 0.25
  Antibiotic MIC in checkerboard: 0.01562 µg/mL
[5]; Chp2-M1 1 μg/mL and 10 μg/mL, meropenem 1 μg/mL
  eradication of biofilm on three additional catheter samples: did not eliminate biofilm
[5]; second catheter sample from the second patient, 1 μg/mL, 4 hours
  log10 CFU/g: 3.16 log10 CFU/g

## MARSRRRMSKRSSRRSFRKYAKTHKKNFKARSMRGGIRL [Ecp3]
[6]; CAA media + 0.19 mg/mL Survanta
  MIC: 0.5 µg/mL
[6]; CAA media + […] Survanta
  MIC: 0.5 µg/mL
[6]; CAA media alone
  MIC: 0.5 µg/mL
Pseudomonas aeruginosa
  MIC50: 2 µg/mL
  MIC100: 4 µg/mL
  MIC Range: 0.5 to 4 µg/mL
Escherichia coli; [20]
  MIC50: 1 µg/mL
  MIC100: 2 µg/mL
  MIC Range: 0.125 to 8 µg/mL
Escherichia coli; Escherichia coli ATCC 25922, CAA supplemented with human serum
  MIC: 1 µg/mL
Enterobacter cloacae; [21]
  MIC50: 0.5 µg/mL
  MIC100: 4 µg/mL
  MIC Range: 0.25 to 4 µg/mL
Enterobacter cloacae; Enterobacter cloacae ATCC 13047, CAA supplemented with human serum
  MIC: 4 µg/mL
M. avium
  45 hr MIC: 1 µg/mL
[7]; 100% CAA, 1st run or single value
  MIC (μg/mL) against CFS-1292 in 100% CAA (1st run/2nd run): 0.5 µg/mL
[7]; CAA + […] human serum
  MIC (μg/mL) against CFS-1292 in CAA + […] human serum: 0.5 µg/mL
[8]; CAA media (pH 7)
  MIC: 1 µg/mL
[8]; pH 6
  MIC: 2 µg/mL
[8]; pH 7
  MIC: 2 µg/mL
[8]; pH 8
  MIC: 2 µg/mL
[9]; Mycobacterium tuberculosis (Zopf) Lehmann and Neumann ATCC 25177
  MIC: 16 µg/mL
[9]; Mycobacterium tuberculosis (Zopf) Lehmann and Neumann ATCC 35817
  MIC: 8 µg/mL
[2]; carbapenem-resistant isolate PA19
  MIC: 0.5 µg/mL
[2]; carbapenem-resistant isolate PA20
  MIC: 4 µg/mL
[2]; carbapenem-resistant isolate PA21
  MIC: 4 µg/mL
[2]; carbapenem-resistant isolate PA22
  MIC: 4 µg/mL
[2]; [16]
  MIC: 2 µg/mL
[2]; carbapenem-resistant isolate PA24
  MIC: 2 µg/mL
[2]; carbapenem-resistant isolate WLC-452
  MIC: 1 µg/mL
S. maltophilia
  MIC50: 4 µg/mL
  MIC100: >8 µg/mL
[10]
  activity (good = MIC100 of ≤4) against all of P. aeruginosa, K. pneumoniae, A. baumannii, E. cloacae, and E. coli: good activity
[11]; CAA media + 1 mM MgSO4
  MIC: 2 µg/mL
[11]; CAA media + 2 mM CaCl2
  MIC: 2 µg/mL
[11]; CAA media + + 1 mM MgSO4
  MIC: 2 µg/mL
[11]; CAA media alone
  MIC: 1 µg/mL
[12]
  45 hr MIC: 2 µg/mL
Klebsiella pneumoniae; [22]
  MIC50: 1 µg/mL
  MIC100: 2 µg/mL
  MIC Range: 0.5 to 4 µg/mL
Klebsiella pneumoniae; Klebsiella pneumoniae HM-44, CAA supplemented with human serum
  MIC: 0.5 µg/mL
M. intracellulare
  45 hr MIC: 8 µg/mL
M. smegmatis; M. smegmatis MC^2 155, Run #1
  45 hr MIC: 4 µg/mL
M. smegmatis; M. smegmatis MC^2 155, Run #2
  45 hr MIC: 8 µg/mL
Acinetobacter baumannii; [23]
  MIC50: 0.25 µg/mL
  MIC100: 0.5 µg/mL
  MIC Range: 0.125 to 0.5 µg/mL
Acinetobacter baumannii; Acinetobacter baumannii ATCC BAA 747, CAA supplemented with human serum
  MIC: 2 µg/mL
[13]; BALB/C mouse serum […]
  MIC BALB/C Mouse Serum: >32 µg/mL
[13]; CAA
  MIC CAA: 0.5 µg/mL
[13]; New Zealand White rabbit serum […]
  MIC New Zealand White Rabbit Serum: 8 µg/mL
[13]; Sprague Dawley rat serum […]
  MIC Sprague Dawley Rat Serum: 8 µg/mL
[13]; human serum […]
  MIC Human Serum: 0.5 µg/mL
[14]; CAA + 140 mM NaCl versus CAA without added NaCl
  Fold change in MIC: 4
[14]; CAA + 140 mM NaCl, P. aeruginosa CFS-1292
  MIC, CAA + 140 mM NaCl: 2 µg/mL
[14]; CAA, no added NaCl, P. aeruginosa CFS-1292
  MIC, CAA (no added NaCl): 0.5 µg/mL
M. scrofulaceum
  45 hr MIC: 2 µg/mL
[15]
  MIC (100% CAA): 0.5
M. fortuitum
  45 hr MIC: 2 µg/mL
